Read-outs that look alike come from different tables or passages of the source.
Assays:
[1] = tested on: H. contortus xL3 to L4 development; experiment: High throughput screen, larval development and phenotype at 168 h; type: cell-based, Haemonchus contortus
Procedure: Following the measurement of xL3 motility, plates were incubated again for 78 h (i.e., a total of 168 h) under the same conditions. Thereafter, 40 µl of 1% (v/v) iodine were added to individual wells, and worms examined using a light microscope (M80, Leica) at 60-times magnification to assess larval development, based on the presence/absence of a well-developed pharynx ([Sommerville, 1966]), and/or phenotypic alterations with respect to untreated xL3s.

[2] = tested on: HepG2 human hepatoma cells; experiment: Cellular toxicity in HepG2 cells (crystal violet); type: cell-based; details: HepG2 cells, concentrations of up to 100 µM
Procedure: (§1) The toxicities of compounds on cell and mitochondria were assessed to estimate their half-maximal cytotoxic concentrations (CC50) and half-maximal mitotoxic concentrations (MC50), respectively. HepG2 human hepatoma cells were seeded into wells of a 96-well plate at a density of 5.5 × 10^4 cells per well in 80 µl of Dulbecco’s modified eagle medium (DMEM; with GlutaMax™ cat. no. 10566016 or 4 mM L-glutamine cat. no. 11966025; Thermo Fisher Scientific), supplemented with 25 mM D-glucose (cytotoxicity) or D-galactose (mitotoxicity), 10% (v/v) inactivated foetal bovine serum (iFBS), 100 IU/ml of penicillin, 100 μg/ml of streptomycin and 0.25 μg/ml of amphotericin B (designated DMEM*). Cells were allowed to adhere for 16 h at 37°C and 5% (v/v) CO2 at > 90% relative humidity, then, incubated for 48 h with individual, serially-diluted compounds (two-fold serial dilution in DMEM*; […]) in a final volume of 100 µl. For the assessment of toxicity on mitochondria, cells were starved of serum (DMEM* without iFBS) for 4 h prior to the 48 h-incubation with compounds ([Swiss and Will, 2011]; [Kamalian et al., 2015]). Two positive control compounds, doxorubicin (cytotoxic control) and M-666 (mitotoxic control) were each added to three individual wells in each 96-well plate at a single concentration of 10 µM. DMEM* + 0.25% (v/v) DMSO was added to 12 wells in each plate as negative controls. Monepantel and moxidectin were also serially diluted — prepared in the same manner as test compounds — and used as (“non-toxic”) reference compounds. After 48 h of incubation, cell viability was determined by the crystal violet staining method ([Śliwka et al., 2016]). The absorbance (595 nm) of treated cells was normalised with reference to the negative control (100% viability). To determine the CC50 and MC50 values, compound concentrations were log10-transformed, baseline-corrected using a respective positive control (doxorubicin or M-666) and fitted using a variable slope four-parameter equation with a least squares (ordinary) fit model using GraphPad Prism software (v.9.1.2). Compounds and controls were tested in triplicate.

[3] = Cellular toxicity in HepG2 cells (crystal violet); type: cell-based, human; details: human, HepG2 human hepatoma cells; HepG2, 48 h; read-out: Cytotoxicity (48 h) CC50
Procedure: as §1

[4] = tested on: eggs of H. contortus; experiment: Egg hatch assay; type: cell-based; details: Haemonchus contortus, 48 h; read-out: Egg hatch inhibition (IC50 in µM)
Procedure: Compounds were also assessed for their effect on the hatching of eggs of H. contortus in vitro. To do this, eggs were isolated from the faeces from sheep with patent (30 day-) H. contortus infection by sucrose flotation ([Mes et al., 2007]). Eggs were suspended in H2O at a concentration of one egg per µl. The eggs were dispensed into wells (in triplicate; 100 eggs per well) and incubated with two-fold serial dilutions (9 points from 50 μM to 0.2 µM in H2O) of individual test or control compounds for 48 h at 27°C and >90% relative humidity; wells with no compound were also included. The numbers (percentages) of eggs from which first-stage larvae (L1s) hatched were counted using a light microscope (M80, Leica) at a 40-times magnification. With reference to positive-control compounds (i.e., monepantel and moxidectin), IC50 values of compounds were calculated.

[5] = tested on: mitochondria of HepG2 human hepatoma cells; experiment: Mitochondrial toxicity in HepG2 cells (galactose medium); type: cell-based; details: HepG2 mitochondria, concentrations of up to 100 µM
Procedure: as §1

[6] = tested on: H. contortus fourth-stage larvae (L4s) development; experiment: Dose-response evaluation, L4 development; type: cell-based, Haemonchus contortus; details: for IC50: Haemonchus contortus, 168 h
Procedure: These evaluations were carried out to estimate the half-maximal inhibitory concentrations (IC50 values) for hit compounds against H. contortus xL3s. With reference to the two positive-control compounds (monepantel and moxidectin), IC50 values for compounds were estimated ([Preston et al., 2015]; [Taki et al., 2021a]) using two-fold serial dilution (in LB*; 9 points from 50 μM to 0.2 µM) in 96-well plates (cat. no. 3596; Corning) with larvae at a density of 300 H. contortus xL3s in 100 µl per well. Plates containing H. contortus xL3s were incubated at 38°C, 10% (v/v) CO2 and >90% relative humidity.
The motility of H. contortus xL3s and L4 development were measured following 168 h of incubation with compound ([Taki et al., 2021a]). Compound concentrations were log10-transformed and fitted using a variable slope four-parameter equation, constraining the highest value to 100% employing a least squares (ordinary) fit model using GraphPad Prism software (v.9.1.2). Compounds were tested by three independent experiments in triplicate. A one-way analysis of variance (ANOVA) with a Tukey’s multiple comparison test or an unpaired t-test was used to establish statistically significant differences in larval motility or development.

[7] = tested on: He. polygyrus in mice; experiment: In vivo activity against He. polygyrus in mice
Procedure: Candidate compound(s) were tested for their effect on other nematode species (He. polygyrus and A. ceylanicum) in infected rodents.
For He. polygyrus, four NMRI mice (3 weeks old; female) were infected orally with 88 He. polygyrus L3s, and immunosuppressed with 0.25 mg/ml dexamethasone (Sigma-Aldrich), in the drinking water, until 2 days prior to treatment ([Mes et al., 2007]). For A. ceylanicum, four Syrian golden hamsters (3 weeks old; male) were infected orally with 300 L3s without immunosuppression ([Tritten et al., 2012]). […] Four each of untreated mice and hamsters served as placebo controls. Six to 7 days post-treatment with the compound, all animals were euthanised by CO2 (hamsters being initially narcotised using isoflurane), and the intestine was dissected. The live adult worms were collected and counted to calculate the worm burden reductions and worm expulsion rates. The worm burden reduction was calculated using the mean number of live worms for the treated group and establishing the differences, in a percentage, with reference to the untreated control group.

[8] = mouse, He. polygyrus, 200 mg/kg single oral dose

Question: With `CCCc1ccc(-c2nc(-c3cccs3)no2)cc1` [UMW-868, 5-(4-propylphenyl)-3-(2-thienyl)-1,2,4-oxadiazole] as the compound, how does the “Abnormal phenotype detected at 168 h” value ([1]; 20 µM) read?
Answer: Cur, Evi

Question: What about the inhibition at 20 µM ([1]; Haemonchus contortus, development to L4) of the same compound?
Answer: 80 to 99%

Question: What about the “cytotoxicity (in words)” value [2] of the same compound?
Answer: did not display any appreciable cytotoxicity

Question: What about the CC50 at 48 h [3] of the same compound?
Answer: > 50 µM

Question: What about the IC50 [4] of the same compound?
Answer: 6.2 µM

Question: What about the “mitotoxicity (in words)” value [5] of the same compound?
Answer: did not display any appreciable cytotoxicity or mitotoxicity

Question: What about the IC50 ([6]; analog series, read-out: L4 development inhibition (IC50 in µM)) of the same compound?
Answer: 50 µM

Question: And the IC50 ([6]; larval development inhibition, hit evaluation, read-out: IC50 (development))?
Answer: 5.8 µM

Question: What about the “abnormal phenotypes in affected xL3s” value ([6]; dose-response evaluation) of the same compound?
Answer: curved or evisceration

Question: What about the “acute toxicity and pathological changes in treated animals” value ([7]; mice, single oral dose, post-mortem examination) of the same compound?
Answer: neither evidence of acute toxicity

Question: And the “Mean no. of worms (SD)” value [7, 8]?
Answer: 12.0 (3.5)

Question: What about the “Reduction in infection intensity (%)” value [7, 8] of the same compound?
Answer: 47%

From PMC9616048, “Thermal proteome profiling reveals Haemonchus orphan protein HCO_011565 as a target of the nematocidal small molecule UMW-868” (Frontiers in Pharmacology, 2022)
